By Ki is commonly meant a dissociation constant, usually derived from enzyme kinetics or from competition with a known ligand.

Experimental findings from article PMC9687241 (Biomolecules, 2022) are described below.

In experiment [1] the target is T1, SARS-CoV-2 M^pro (Severe acute respiratory syndrome coronavirus 2, UniProt P0DTD1). The format is biochemical. The settings on record: 0.2 µM M^pro, 2 h incubation at r.t., 4 µM substrate, Hill equation fit; read-out: Inhibition constants, Ki.
In experiment [2] the target is T1, SARS-CoV-2 M^pro. The experiment in a line: ESI MS of metallodrug-protein adduct formation. It is filed as binding. The settings on record: protein-to-metal ratio 1:3 (1:1 for Au(PEt3)Br), 37 °C, 4 h incubation (up to 24 h).

As for `CCCC[n+]1ccn(C)[c]1[Au-][Cl]` [Au(NHC)Cl], the Ki at SARS-CoV-2 M^pro [1] is 870 ± 40 nM. The “protein metalation / adduct formation (ESI MS)” value at SARS-CoV-2 M^pro [2] is given as “formation of a mono adduct”. For the compound `CC[P](CC)(CC)[Au][Br]` [Au(PEt3)Br], the Ki at SARS-CoV-2 M^pro [1] came out at 440 ± 22 nM. Same read-out and setting: the figure for `CCP(CC)CC.[Au+].[Cl-]` [Au(PEt3)Cl] is 660 ± 26 nM; for `CC[P](CC)(CC)[Au][I]` [Au(PEt3)I] it is 2120 ± 96 nM.
